Test results as given in PubChem BioAssay AID179 (DTP/NCI, 2004).
Where “and” joins values, the source holds several entries; their conditions need not be identical. Equal entries are not always repeated. Calls of active or inactive are those of the source.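 Rule for the calls: active = compounds giving half or more protection of infected cells from virus-caused growth loss, again on retest; inactive = the rest.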 Where a SMILES comes first, the peptide text is derived from it. [ ]: non-standard residue; d: D form. The star is where a group is joined. ξ: configuration not given here. ξD = NC(CC(=O)O)C(=O)O; Ac3c = NC1(C(=O)O)CC1; Boc = CC(C)(C)OC(=O)*; OtBu = CC(C)(C)O*

System: CEM cells HIV-1 protection, formazan growth assay
Test: NCI AIDS Antiviral Assay
Settings: for IC50: measured here: growth of uninfected CEM cells
Procedure, shortened: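 Steps: treat uninfected and HIV-1-infected human CEM cells at five drug levels; quantify growth by soluble formazan; retest any compound reaching 50% protection; classify actives from the retest.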

## OC[C@@H](O)[C@@H](O)c1cnn(-c2ccccc2)n1
  EC50: > 200 µM
  IC50: > 200 µM

## CC(C)SSC(=O)N1CCCC1C(=O)O (centres undefined)
  EC50: > 200 µM
  IC50: > 200 µM

## COc1cccc(-c2nc(-c3cnccn3)n(COCCO)n2)c1
  EC50: > 200 µM
  IC50: > 200 µM

## CCCCC1(N=[N+]=[N-])C(=O)C2C=CC=C3c4ccccc4N(C1=O)C32 (centres undefined)
  outcome: inactive

## CCNc1nc2ccccc2nc1NCC
  EC50: > 200 µM
  IC50: > 200 µM

## O=C1NC(=O)C(CC(C(=O)C(=O)Nc2ccccc2Cl)C(=O)c2ccc3ccccc3c2)C(=O)N1 (centres undefined)
  EC50: > 38 µM
  IC50: > 38 µM

## O=S1(=O)CCC2=CC(C(F)(F)F)=CC(C(F)(F)F)=CN21
  EC50: > 81.3 µM
  IC50: 0.38 µM

## CCCNC(=O)Cn1c2c(c3ccccc31)CCCC2
  EC50: > 200 µM
  IC50: 69.2 µM

## Cc1cccc(N2C(=O)C3c4[nH]c5ccccc5c4C4CCC(C(C)(C)C)CC4C3C2=O)c1C (centres undefined)
  EC50: > 200 µM
  IC50: 22.9 µM

## CCOC(=O)C(C(=O)OCC)c1ccc([N+](=O)[O-])o1
  EC50: > 132 µM
  IC50: 1.86 µM

## CC#CCCC1CCCCN(C(=O)OC)C1OCC (centres undefined)
  EC50: > 933 µM
  IC50: 166 µM

## Clc1ccc2noc(-c3ccccc3)c2c1
  EC50: > 22.9 µM
  IC50: > 22.9 µM

## Cc1c(Cl)cccc1NC(=O)CC1C(=O)Nc2ccccc2S1(=O)=O (centres undefined)
  EC50: > 5.25 µM
  IC50: > 5.25 µM

## O=C(NCc1ccccc1)c1cc2cc(O)c(O)cc2cn1
  EC50: > 200 µM
  IC50: 5.13 µM and > 8.32 µM

## Cc1ccc2c(c1)C(=O)C1(C2)Cc2cccc(C)c2C1=O (centres undefined)
  EC50: > 200 µM
  IC50: > 200 µM

## CN(C)CC(NC(NCS)C(=O)NCCNc1ccc(NCCNC(=O)C(NCS)NC(CN(C)C)OCCl)c2c1C(=O)c1c(O)ccc(O)c1C2=O)OCCl (centres undefined)
  EC50: > 0.0501 µM
  IC50: 0.0182 µM

## O=C1C(Cl)=C(O)C2(Cl)C(Cl)=C(Cl)C12Cl (centres undefined)
  outcome: inactive

## COc1ccc2c(c1)OC[C@@H]1c3cc(OC)c(OCc4ccccc4)cc3O[C@H]21
  EC50: 6.61 µM
  IC50: > 100 µM

## CC1(C)CCC(=O)c2c(O)ccc(O)c21
  outcome: inactive

## Cn1c(N)c(N=Nc2ccc(S(=O)(=O)Nc3ccccn3)cc2)c(=O)n(C)c1=O
  outcome: inactive

## COC(=O)c1c2oc3c(C(=O)OC)cccc3nc-2cc(N)c1=O
  outcome: inactive

## O=C(Nc1ccc(C(F)(F)F)cc1[N+](=O)[O-])C(=O)Nn1c(=S)[nH]c2ccccc2c1=O
  EC50: > 79.4 µM
  IC50: > 79.4 µM

## CCCCCSP(=S)(C(C)C)C(C)C
  EC50: > 200 µM
  IC50: 115 µM

## C[C@@]1(O)C2C3CC4C5C3C1[C@](O)(C42)[C@H]5Br (some centres undefined)
  outcome: inactive

## O=c1sc2c(s1)-c1sc(=O)sc1SS2
  EC50: > 77.6 µM
  IC50: 51.3 µM

## COc1cccc(C2c3cc4c(cc3OC(N3CCOCC3)C2C)OCO4)c1OC (centres undefined)
  EC50: > 200 µM
  IC50: 1.7 µM

## CN(C)/C=N\c1c(C#N)c(CC#N)nn1-c1ccccc1
  EC50: > 200 µM
  IC50: > 200 µM

## CCCCCCC(=O)N1SC(NC(=O)OC)=Nc2ccccc21
  EC50: > 77.6 µM
  IC50: 10.2 µM

## Cc1ccc(S(=O)(=O)N2CCN(CCN(C)CCN3CCN(S(=O)(=O)c4ccc(C)cc4)CC3)CC2)cc1
  EC50: > 100 µM
  IC50: 46.8 µM

## CS(=O)(=O)OCCCS(=O)(=O)O
  EC50: > 200 µM
  IC50: > 200 µM

## N#C/C(=C\NC(=S)Nc1ccccc1Cl)C(=O)c1ccc2ccccc2c1
  EC50: > 200 µM
  IC50: 141 µM

## COc1ccc(C)cc(=O)c1O
  EC50: > 251 µM
  IC50: 14.5 µM

## CC1(C)CC(=O)C(/C=N/C(N)=S)=C(O)C1
  EC50: > 200 µM
  IC50: > 200 µM

## CC1C2c3ccccc3C(c3ccccc32)C1CN1C(CCO)COC1c1ccccc1 (centres undefined)
  EC50: > 200 µM
  IC50: 38 µM

## O=C(NC1CCCCC1)/C(=C\c1ccc2c(c1)OCO2)NC(=O)c1ccccc1
  EC50: > 200 µM
  IC50: > 200 µM

## CC(C)CCC1(CCSC#N)C(=O)NC(=O)NC1=O
  EC50: > 200 µM
  IC50: 37.2 µM

## Cc1ccc(-c2c(C#N)c(-c3ccc(Cl)cc3)c(C#N)c(=O)n2NS(=O)(=O)c2ccc(C)cc2)cc1
  EC50: > 200 µM
  IC50: 20.9 µM

## Cc1cc2c(c(C=Nc3ccc(N(C)C)cc3)c1)OC1(C=C2)Oc2ccccc2C(=O)N1C (centres undefined)
  EC50: > 41.7 µM
  IC50: 13.2 µM

## C=CCNc1nc2c(s1)CCc1cc(OC)c(OC)cc1-2
  EC50: > 24 µM
  IC50: > 24 µM

## N#C/C(=C\c1ccco1)C(N)=O
  EC50: > 200 µM
  IC50: > 200 µM

## CCC(CCN)(CCN)[N+](=O)[O-]
  EC50: > 200 µM
  IC50: > 200 µM

## CCOc1cc2c(cc1O)/C(=N\O)C[C@@H]1[C@@H]2CC[C@]2(C)[C@@H](O)CC[C@@H]12
  EC50: > 200 µM
  IC50: 0.0631 µM

## CCOC(=O)/C=C/n1c2ccccc2c(=O)c2ccccc21
  EC50: > 9.33 µM
  IC50: > 9.33 µM

## c1ccc(N=C2SC(c3ccccc3)(c3ccccc3)c3ccccc32)cc1
  EC50: > 200 µM
  IC50: > 200 µM

## CC(C)(c1ccsc1)c1sccc1C(=O)O
  EC50: > 200 µM
  IC50: > 200 µM

## CCN(CC)CCOc1ccc2c(c1)C(=O)c1cc(OCCN(CC)CC)ccc1-2
  EC50: > 200 µM
  IC50: 12.3 µM

## COc1ccc2c(c1O)-c1c(OC)c(OC)cc3c1C(C2)N(C)CC3 (centres undefined)
  EC50: > 200 µM
  IC50: > 200 µM

## O=C1NC(=S)N/C1=C\c1ccc(Cl)cc1
  EC50: > 200 µM
  IC50: 105 µM

## CC(C)(C)OC(=O)NC(C)(C)C(=O)NCCC(=O)O
  EC50: > 200 µM
  IC50: > 200 µM

## Cc1cc(S(=O)(=O)Nc2nnc3ccccn23)c(S)cc1Cl
  EC50: 102 µM
  IC50: 380 µM

## CC1(C)COC(c2ccccc2Br)=N1
  EC50: > 200 µM
  IC50: > 200 µM

## COC(=O)C1(NC(=O)C(CC(=O)OC(C)(C)C)NC(=O)OC(C)(C)C)CC1 (centres undefined) (Boc-[ξD](OtBu)-[Ac3c]-OMe)
  EC50: > 200 µM
  IC50: > 200 µM

## O=C(CCCN1CCC(n2c(=O)[nH]c3ccccc32)CC1)c1ccc(F)cc1
  EC50: > 200 µM
  IC50: 89.1 µM

## CC1=NNC(=O)C1C1CC(c2c[nH]c3ccccc23)=NN(C(N)=O)C1=O (centres undefined)
  EC50: > 200 µM
  IC50: > 100 µM

## NS(=O)(=O)c1cc[n+]([O-])c2ccccc12
  EC50: > 200 µM
  IC50: 55 µM

## CCOC(=O)c1c(-c2ccccc2)oc(=O)c(Cc2cccc3cccnc23)c1-c1ccccc1
  EC50: > 200 µM
  IC50: > 200 µM

## COc1cc2oc3ccccc3c(=O)c2cc1CSc1ccccc1N
  EC50: > 14.5 µM
  IC50: 11 µM

## c1ccc2c(c1)Nc1ccccc1O2
  EC50: > 97.7 µM
  IC50: 23.4 µM

## CCOC(=O)C(NS(=O)(=O)c1ccccc1)(C(F)(F)F)P(=O)(OCC(C)C)OCC(C)C (centres undefined)
  EC50: > 200 µM
  IC50: 64.6 µM

## Cc1cccc(/C=N/NC(=S)N2CCCC2)n1
  EC50: > 100 µM
  IC50: 0.115 µM

## CSc1ncc2c(C#N)c3[nH]c4ccccc4n3c(=O)c2n1
  EC50: > 200 µM
  IC50: 6.46 µM

## NC1=NN(c2ccccc2)C(=O)C1C(=O)C(=O)Nc1ccccc1 (centres undefined)
  outcome: inactive

## O=C1CCC2CN3CCc4c([nH]c5ccccc45)C3CC2C1 (centres undefined)
  EC50: > 45.7 µM

## C=CCc1ccc(Oc2cc(CC=C)c3c(c2O)O[C@@H](CO)[C@H]3c2ccc(O)c(-c3cc(CC=C)ccc3O)c2)cc1
  EC50: > 100 µM
  IC50: > 100 µM

## COc1ccc(Nc2cc(=O)[nH]c(=O)[nH]2)cc1
  EC50: > 200 µM
  IC50: > 200 µM

## O=C1c2cccc3cccc(c23)C(=O)N1c1ccc([N+](=O)[O-])cc1[N+](=O)[O-]
  EC50: > 200 µM
  IC50: 120 µM
